Earlier results as cited in patent US20090022788A1, “DIETARY SUPPLEMENT FOR HEALING OR REGRESSING SYMPTOMS OF GASTROESOPHAGEAL REFLUX DISEASE, GASTRITIS AND ULCERS” (priority 2006, published 2009).

Tested on: spontaneous gastric ulcers
Settings: young pigs, 4-week administration in the diet

## COc1ccc2[nH]cc(CCNC(C)=O)c2c1 [melatonin, N-Acetyl-5-methoxytryptamine]
  incidence of spontaneous gastric ulcers: significantly reduced
